Experimental data from PMC3454376, “Salidroside Improves Behavioral and Histological Outcomes and Reduces Apoptosis via PI3K/Akt Signaling after Experimental Traumatic Brain Injury” (PLoS ONE, 2012).

Tests used:
[1] = tested on: mice subjected to controlled cortical impact injury; assay: Residual cerebral tissue ratio, cresyl violet staining; type: in vivo; conditions: icv LY294002 30 min before CCI, then SALD 20 mg/kg ip (S20LY group); day 28; P<0.05 vs S20S
Description: All animal procedures were approved by the Animal Research Committee at Cheng Hsin General Hospital (Animal permit number CHIACUC 101–08), and all procedures complied with the Guide for the Care and Use of Laboratory Animals published by the US National Institutes of Health (NIH Publication No. 85–23, revised 1996). Animals were housed under a 12-h light/dark cycle and at constant temperature (21–25°C) and humidity (45–50%). They were allowed free access to pellet chow and water. TBI in mice was induced by a CCI injury model as previously described. Briefly, 8-week-old male C57BL/6 mice (weighing 22–25 g) were anesthetized through the use of intraperitoneal injection of sodium pentobarbital (65 mg/kg; Rhone Merieux, Harlow, UK) and placed in a stereotaxic frame. A 5 mm craniotomy was performed over the right parietal cortex, centered on the coronal suture and 0.1 mm lateral to the sagittal suture, and injury to dura was avoided. Injury was induced using a pneumatic piston with a rounded metal tip (2.5 mm diameter) that was angled 22.5° to the vertical so that the tip was perpendicular with the brain surface at the center of the craniotomy. The impact, with a velocity of […] and a deformation depth of 2 mm below the dura, was applied. The bone flap was immediately replaced and sealed, and the scalp was sutured. Body temperature was monitored throughout the surgery by a rectal probe; temperature was maintained at 37.0±0.5°C using a heated pad. Mice were placed in a heated cage to maintain body temperature, while recovering from anesthesia. Sham-operated mice underwent the same procedure as injured mice, but without CCI.
(§1) Mice were anesthetized and positioned in a stereotaxic frame. LY294002 (200 nM in 0.5 µL of saline) or equal amount of physiological saline was intracerebroventricularly (icv) injected at 30 min before CCI as previously described. A 1 mm cranial burr hole was drilled into the skull. A 30-gauge needle on a Hamilton syringe was implanted into the lateral ventricle using stereotactic coordinates: 1.5 mm posterior to bregma and 1.0 mm right lateral to the midline, 2 mm in depth. LY294002 or saline was infused into the brain at a rate of 0.05 µL/min over 10 min with an infusion pump (KDS 310, KD Scientific Inc., Holliston, MA, USA), and the needle was left in place for an additional 20 min to prevent reflux. After the needle was removed, CCI procedure was conducted immediately. Sham-operated mice were infused icv with saline, but were not subjected to CCI.
Three sets of experiments were performed. […] To determine the optimal dose of salidroside, a pilot study was performed using 2 different doses (20 and 50 mg/kg) administered 10 min after injury, and neurological deficits and tissue damage were evaluated as the main outcomes. […]

[2] = tested on: p-Akt Ser473; assay: Western blot, injured cortex; type: in vivo, mice
Description: as §1
(§2) Three sets of experiments were performed. The first set was to investigate the protective effects of salidroside. All animals were randomized into 1 of 3 groups (sham injury, CCI + vehicle, CCI + SALD 20). Surgery/injury, behavioral testing, and tissue analyses were performed by different individuals. Behavioral testing and tissue analyses were performed by individuals blinded to the treatment group. Salidroside (Cayman Chemical, Ann Arbor, MI, USA) dissolved in normal saline (0.25 mL) or a corresponding volume of vehicle (saline) was administered intraperitoneally 10 min following injury. Testing after injury was completed as follows: 1) behavioral testing at days 1, 4, 7, 14, 21, and 28 (n = 8–10 mice/group); 2) cresyl violet staining at day 28 (n = 9 mice/group); 3) histology, determination of brain water content, and western blot analysis at day 1 or 3 (n = 5–6 mice/group). To determine the optimal dose of salidroside, a pilot study was performed using 2 different doses (20 and 50 mg/kg) administered 10 min after injury, and neurological deficits and tissue damage were evaluated as the main outcomes. […] The second set of experiment was to assess the effect of the inhibition of PI3K/Akt with the specific PI3K inhibitor, LY294002 (Cell Signaling Technology, Danvers, MA, USA), on salidroside effects. Animals were randomized into 4 groups. Mice received either: 1) icv pretreatment of LY294002 followed by SALD 20 after CCI (S20Y group); or 2) icv pretreatment of saline (vehicle control) followed by SALD 20 after CCI (S20V group). 3) Mice were infused icv with saline and were subjected to sham injury. 4) Mice were infused icv with LY294002 and were subjected to sham injury. Testing after injury was completed as follows: 1) cresyl violet staining at day 28 (n = 6 mice/group); 2) western blot analysis at day 1 (n = 6 mice/group). The third set of experiment was performed to examine the neuroprotective time window afforded by salidroside. Mice received intraperitoneal SALD 20 or vehicle (saline) at 3 or 6 h following CCI and were sacrificed 1 day later for FJB staining and western blot analysis (n = 6 mice/group).
(§3) Brains of injured or sham animals were collected 1 day and 3 days post CCI or sham surgery, and a 4 mm coronal section from the injured area over the parietal cortex and ipsilateral hippocampus were collected. The protein samples were obtained from tissue homogenates in 300 µL of ice-cold reagent (T-PER reagent; Pierce Biotechnology, Rockford, IL, USA) with a complete mini protease inhibitor cocktail (Roche Molecular Biochemicals) centrifuged at 14000g for 30 min. Protein concentration was determined by Bradford reagent spectrophotometrically at A595. Equal amounts of protein samples were denatured in gel-loading buffer at 100°C for 5 min, and then loaded onto sodium dodecyl sulfate-polyacrylamide gels to be separated. Separated proteins were transferred to Immobilon-P membranes (Millipore, Billerica, MA, USA), blocked with the use of 5% milk in PBST and probed with primary antibodies. […]

[3] = tested on: p-Akt Thr308; assay: Western blot, injured cortex; type: in vivo, mice; conditions: icv LY294002 30 min before CCI + SALD 20 mg/kg ip (S20LY); day 1; P<0.05
Description: as §1, §2, §3

[4] = tested on: p-Bad; assay: Western blot, injured cortex; type: in vivo, mice
Description: as §1, §2, §3

[5] = tested on: p-FOXO1; assay: Western blot, injured cortex; type: in vivo, mice
Description: as §1, §2, §3

[6] = icv LY294002 30 min before CCI + SALD 20 mg/kg ip, day 1, P>0.05

O=c1cc(N2CCOCC2)oc2c(-c3ccccc3)cccc12 [LY294002, reference compound]
residual cerebral tissue ratio [1]: 71.0±6.3%
p-Akt Ser473 level, S20LY versus S20V group [2, 6]: similar
Akt phosphorylation (Ser473 and Thr308) in sham-operated mice ([2]; icv LY294002, sham injury): did not affect
p-Akt Thr308 level, % of the S20V level [3]: 58.1%
p-Bad level, S20LY versus S20V group [4, 6]: similar
Bad phosphorylation in sham-operated mice ([4]; icv LY294002, sham injury): did not affect
p-FOXO1 level, % of the S20V level ([5]; icv LY294002 30 min before CCI + SALD 20 mg/kg ip (S20LY), day 1, P<0.05): 41.6%
FOXO1 phosphorylation in sham-operated mice ([5]; icv LY294002, sham injury): did not affect
